Assays:
[1] = test system: inducible nitric oxide synthase (iNOS); assay: Western blot analysis of iNOS (M1 marker) in LPS-stimulated glial cells; assay type: cell-based; settings: LPS 100 ng/mL, 24 hours co-treatment, 0, 5, 10 and 20 μM; dose-dependent; primary rat glial cells (FIGS. 5a, b)
Procedure: (§1) Mixed glial cell cultures were prepared from cerebral cortex of newborn Wistar rats (Rattus norvegicus), as previously described [Monti, B.; D'Alessandro, C.; Farini, V.; Bolognesi, A.; Polazzi, E.; Contestabile, A.; Stirpe, F.; Battelli, M. G. In vitro and in vivo toxicity of type 2 ribosome-inactivating proteins lanceolin and stenodactylin on glial and neuronal cells. Neurotoxicology 2007, 28, 637-644]. Briefly, brain tissue was cleaned from meninges, trypsinized for 15 minutes at 37° C. and, after mechanical dissociation, the cell suspension was washed and plated on poly-L-lysine (Sigma-Aldrich, St. Louis, Mo., USA, 10 μg/mL) coated flasks (75 cm^2). Mixed glial cells were cultured for 10-13 days in Basal Medium Eagle (BME, Life technologies Ltd, Paisley, UK) supplemented with 100 mL/L heat-inactivated FBS (Life technologies), 2 mmol/L glutamine (Sigma-Aldrich) and 100 μmol/L gentamicin sulfate (Sigma-Aldrich).
(§2) Microglial cells were harvested from mixed glial cell cultures by mechanical shaking, resuspended in fresh medium without serum and plated on uncoated 35 mm Ø dishes at a density of 1.5×10^6 cells/1.5 mL medium/well for western blot analysis or on 96 wells at 1×10^5 cells/0.2 mL medium/well for MTT assay. Cells were allowed to adhere for 30 minutes and then washed to remove non-adhering cells. […]

glial and neuronal cells = assay: MTT assay, viability of brain cells in primary cultures; assay type: cell-based, rat; settings: 0, 10, 20 and 50 μM for 24 hours; up to 50 μM; microglia, astrocytes, cerebellar granular neurons (FIGS. 4a-4c)
Procedure: as §1, with “(Sigma-Aldrich). […]” for “(Sigma-Aldrich).”
Neurotoxicology 2007, 28, 637-44]. […] Following a 20 minutes incubation for CGNs and 2 hours for glial cells at 37° C. in the dark, the MTT precipitate was dissolved in 0.1 M Tris-HCl buffer containing 5% Triton X-100 (all from Sigma-Aldrich) and absorbance was read at 570 nm in a multiplate spectophotometric reader (Bio-Rad).

[2] = test system: triggering receptor expressed on myeloid cells 2 (TREM2); assay: Western blot analysis of TREM2 (M2 marker) in LPS-treated microglia cells; assay type: cell-based, rat; settings: LPS 100 ng/mL, 24 hours co-treatment; microglia cells (FIG. 5c)
Procedure: as §1
as §2, with “assay.” for “assay. Cells were allowed to adhere for 30 minutes and then washed to remove non-adhering cells.”
J. Biol. Chem. 1951, 193, 265-275]. […] Labelled proteins were detected by using the enhanced chemiluminescence method (ECL; Bio-RAD). […]

Row | SMILES | LPS-induced iNOS induction [1] | toxicity in glial and neuronal cells (MTT viability) (glial and neuronal cells) | TREM2 expression reduced by LPS [2]
1 | CCNC1=NC(c2ccc(F)cc2)NC(=O)N1 (racemic) [Example 3, 6-(ethylamino)-4-(4-fluorophenyl)-3,4-dihydro-1,3,5-triazin-2(1H)-one] | reduced | did not display any toxicity | restored
2 | CCCNC1=NC(c2ccc(F)cc2)NC(=O)N1 (stereo not drawn) [Example 6, 4-(4-fluorophenyl)-6-(propylamino)-3,4-dihydro-1,3,5-triazin-2(1H)-one] | reduced | did not display any toxicity | restored
